Experimental data as given in patent US9765075B2, “Substituted bridged urea analogs as sirtuin modulators” (GLAXOSMITHKLINE LLC, priority 2013, dated 2017).
Substitutions are numbered along the chain they refer to.

Experiments:
Assay in all cases: SIRT1 activation dose-response, OAcADPr assay with Ac-p53(W5) substrate
Type in all cases: biochemical
full-length hSIRT1 T219A = biological target: T1, full-length hSIRT1 T219A (Homo sapiens, UniProt Q96EB6, T219A); details: for EC50: hSIRT1 T219A, activation dose-response, Ac-p53(W5) substrate
T1 construct: The following point mutants of full-length hSIRT1 were generated; His6 (C); made in house
T1 sequence (Q96EB6 1-747 T219A): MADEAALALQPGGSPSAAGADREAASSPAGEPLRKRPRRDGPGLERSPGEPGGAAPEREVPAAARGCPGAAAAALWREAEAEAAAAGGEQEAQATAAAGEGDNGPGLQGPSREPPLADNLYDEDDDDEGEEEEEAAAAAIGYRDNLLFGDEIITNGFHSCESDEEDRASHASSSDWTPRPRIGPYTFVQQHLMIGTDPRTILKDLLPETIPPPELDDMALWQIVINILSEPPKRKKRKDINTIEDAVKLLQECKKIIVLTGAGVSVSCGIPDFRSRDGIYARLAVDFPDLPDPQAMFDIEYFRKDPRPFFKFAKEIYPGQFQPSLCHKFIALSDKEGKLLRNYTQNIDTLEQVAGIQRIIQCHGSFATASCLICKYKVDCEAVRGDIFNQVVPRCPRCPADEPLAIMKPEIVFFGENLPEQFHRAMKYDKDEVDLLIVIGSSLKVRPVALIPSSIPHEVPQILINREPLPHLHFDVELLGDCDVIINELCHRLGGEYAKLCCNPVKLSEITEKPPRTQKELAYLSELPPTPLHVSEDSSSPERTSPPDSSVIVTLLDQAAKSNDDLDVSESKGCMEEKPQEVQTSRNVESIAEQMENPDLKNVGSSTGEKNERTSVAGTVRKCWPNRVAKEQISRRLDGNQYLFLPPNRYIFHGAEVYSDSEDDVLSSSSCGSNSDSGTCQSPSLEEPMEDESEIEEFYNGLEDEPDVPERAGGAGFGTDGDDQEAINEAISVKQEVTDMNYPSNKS

full-length hSIRT1 I227A = biological target: T2, full-length hSIRT1 I227A (Homo sapiens, UniProt Q96EB6, I227A); details: for EC50: hSIRT1 I227A, activation dose-response, Ac-p53(W5) substrate
T2 construct: The following point mutants of full-length hSIRT1 were generated; His6 (C); made in house
T2 sequence (Q96EB6 1-747 I227A): T1 sequence (Q96EB6 1-747 T219A) with A219T, I227A

full-length hSIRT1 E230Q = biological target: T3, full-length hSIRT1 E230Q (Homo sapiens, UniProt Q96EB6, E230Q); details: for EC50: hSIRT1 E230Q, activation dose-response, Ac-p53(W5) substrate
T3 construct: His6 (C); made in house
T3 sequence (Q96EB6 1-747 E230Q): T1 sequence (Q96EB6 1-747 T219A) with A219T, E230Q

Row | EC50 fold shift (mutant EC50/wild-type EC50) (full-length hSIRT1 T219A) | RVmax fold shift = (wild-type RVmax−1)/(mutant RVmax−1) (full-length hSIRT1 T219A) | EC50 (full-length hSIRT1 T219A) [µM] | EC50 fold shift (mutant EC50/wild-type EC50) (full-length hSIRT1 I227A) | RVmax fold shift = (wild-type RVmax−1)/(mutant RVmax−1) (full-length hSIRT1 I227A) | EC50 (full-length hSIRT1 I227A) [µM] | EC50 fold shift (mutant EC50/wild-type EC50) (full-length hSIRT1 E230Q) | RVmax fold shift = (wild-type RVmax−1)/(mutant RVmax−1) (full-length hSIRT1 E230Q) | EC50 (full-length hSIRT1 E230Q) [µM] | SMILES
1 | 8.26 | 1.64 | 3.96 | 6.21 | 1.06 | 2.98 | 1.21 | 3.07 | 0.58 | Cc1cnc2c(NC(=O)N3c4nc(-c5cccc(C(F)(F)F)c5)ccc4N4CC[C@H]3C4)cccc2n1 [Example 8]
2 | 4.01 | 2.73 | 8.83 | 3.07 | 0.85 | 6.76 | 1.53 | 3.93 | 3.36 | O=C(Nc1ccccn1)N1c2nc(-c3cccc(C(F)(F)F)c3)ccc2N2CC[C@H]1C2 [Example 7]
